Data set [1] relates to A549, H1299 and CL1-0 human lung cancer cell lines. Description: SILAC-based surface proteomics compared across cell lines. Conditions: D3R3, A549, H1299, CL1-0. The protocol: (§1) For drug treatment experiments, cells were cultured with 100 nM decitabine (DAC; A3656, Sigma-Aldrich) for three days with daily change of complete medium and drug replenishment, followed by 3 to 4 days of cell recovery in the decitabine-free medium. To block the DAC's effect on immune synapse formation via actin cytoskeleton reorganization, the DAC-pretreated (D3R3) cells were treated with 1 μg/mL cytochalasin B (Cyto B; C6762, Sigma-Aldrich) for 1.5 hours prior to coculture with γδ T cells.
(§2) For quantitative mass spectrometry analysis, lung cancer cells were cultured for at least seven cell doublings in SILAC RPMI medium (88365, Thermo Fisher Scientific) supplemented with 10% FBS and heavy isotope-labeled amino acids (L-Lysine 13C6, L-Arginine 13C6) (CLM-2247-H-1, CLM-2265-H-1, Cambridge Isotope Laboratories). DAC-treated cells grown in the regular medium were considered as SILAC light counterparts.
(§3) Cancer cells (around 1.5×10^7 cells) were grown in a 15-cm culture dish and washed with ice-cold PBS (21040CM, Corning) before the labeling. […] The protein concentration of the supernatants was determined using Pierce 660 nm Protein Assay Reagent Kit (22660, Thermo Fisher Scientific) supplemented with Ionic Detergent Compatibility Reagent (22663, Thermo Fisher Scientific). […]

The test system of data set [2] is A549 human lung cancer cells. Description: SILAC-based quantitative surface proteomics of decitabine-treated cells. Format: cell-based. Particulars: A549, both D3 and D3R3, 100 nM. On the procedure: as §1, §2, §3
For another data set, the system named is A549 lung cancer cells. Description: Real-time impedance (ECIS) monitoring of γδ T cell killing. Conditions: low dose.
The subject of the next data set is H1299 lung cancer cells. Description: Immunofluorescence imaging of immune synapses between cancer and γδ T cells. Format: cell-based, human. On the procedure: as §1
Cancer and γδ T cells were spun down onto poly-L-lysine coated coverslips by using a Cyto-Tek table-top cytofuge at 500 rpm for 5 minutes (Sakura Scientific) before fixation with ice-cold methanol or 4% (w/v) paraformaldehyde in PBS for 10 minutes. The fixed samples were blocked in detergent-free blocking solution [1% normal donkey serum (ab7475, abcam) and 3% BSA in PBS] without membrane permeabilization by detergents. Subsequently, cells were incubated with primary antibodies diluted in the blocking solution for 1 hour in a moist chamber at room temperature and washed with PBS. Labeling of fluorescent secondary antibodies at 1:200 dilution in PBS was carried out in the blocking buffer for 1 hour at room temperature. After PBS washing, cell nuclei were stained with Hoechst 33342 or DAPI (62248, Thermo Fisher Scientific) in PBS. Finally, the samples were washed with PBS and mounted on the slides. All slides were examined under an epifluorescence microscope EVOS FLc (Invitrogen), and the images were analyzed using the ImageJ software. For the visualization of immune synaptic proteins, cells were imaged with a high-resolution confocal microscope (LSM780, Zeiss) with a 63×oil objective and analyzed with the confocal software ZEN (Zeiss).

Setting [3] is: DAC D3R3 plus 1 μg/mL Cyto B 1.5 hours.

Entries after “also recorded” stand apart in the source; their conditions may differ.

Method for A549 lung cancer cells: In addition, real-time monitoring of γδ T-mediated killing of cancer cells was performed using the Electric Cell-Substrate Impedance Sensing (ECIS) monitoring system with an 8W10E+ culture chamber (Applied Biophysics). Mock or DAC-treated cancer cells were cultured in the chamber at 37° C. overnight until the cancer cells were fully attached to the bottom of the wells. Following the addition of γδ T cells, the detachment of cancer cells indicating cell death was recorded in real-time using multiple frequency capture with the ECIS software. Relative impendence at the time of γδ T cell addition was used for between-sample normalization.

In the case of `Nc1ncn([C@H]2C[C@H](O)[C@@H](CO)O2)c(=O)n1` [DAC, decitabine], the “Number of proteins commonly upregulated in all three lung cancer cell lines” value in data set [1] was 431. Also, the “Number of proteins with sustained upregulation by at least 1.4-fold” value in data set [2] is listed as 314. Besides, in the data set with A549 lung cancer cells, the “Cytotoxicity / cell viability with DAC alone” value is given as “does not cause significant cytotoxicity; also recorded: minimal effects on cell viability”.

For `C=C1[C@@H](C)[C@H]2[C@H](Cc3ccccc3)NC(=O)[C@]23OC(=O)/C=C/[C@H](O)CCC[C@@H](C)C/C=C/[C@H]3[C@@H]1O` [cytochalasin B], in the data set on H1299 lung cancer cells (setting [3]), the “DAC-induced F-actin clustering and pTyr signaling at immune synapses” value is reported as “abolished”; the “ICAM-1 expression at immune synapses” value was “minimal effects”. In addition, in the data set with H1299 lung cancer cells (DAC plus Cyto B), the “DAC effects on width of the synaptic cleft” value is given as “diminished” and the “DAC's enhancing effects on immune synapse formation” value is reported as “significantly counteracted”.

Values taken from patent US12514866B2, “Method for treating cancer” (National Taiwan University, priority 2021, dated 2026).
